# Experimental data published in PMC4687057, “The function of phosphatidylinositol 5-phosphate 4-kinase γ (PI5P4Kγ) explored using a specific inhibitor that targets the PI5P-binding site” (Biochemical Journal, 2015).
# pIC50: −log10 of the molar value.
# Key:
# [1] = molecular target: T1, phosphatidylinositol 5-phosphate 4-kinase γ (PI5P4Kγ) (Homo sapiens, UniProt Q8TBX8); test: HDX-MS with purified protein; IC50 from […]P lipid kinase assay on recombinant enzyme; type: biochemical
# T1 construct: gene PIP4K2C; PI5P4Kγ from GST fusion (pGEX6P), GST cleaved with PreScission protease
# T1 sequence (Q8TBX8 2-421): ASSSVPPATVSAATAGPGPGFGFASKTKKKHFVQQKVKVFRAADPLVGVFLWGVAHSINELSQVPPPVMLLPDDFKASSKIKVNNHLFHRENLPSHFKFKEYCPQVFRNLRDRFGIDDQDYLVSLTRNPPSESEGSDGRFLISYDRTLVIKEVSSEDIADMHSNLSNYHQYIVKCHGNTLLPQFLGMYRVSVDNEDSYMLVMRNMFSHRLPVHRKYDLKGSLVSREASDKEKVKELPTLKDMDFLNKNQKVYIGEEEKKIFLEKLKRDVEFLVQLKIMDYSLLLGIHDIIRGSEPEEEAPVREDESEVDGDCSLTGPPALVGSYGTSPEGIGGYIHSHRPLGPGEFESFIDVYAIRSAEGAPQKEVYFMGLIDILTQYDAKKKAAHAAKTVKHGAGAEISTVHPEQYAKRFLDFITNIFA
# [2] = molecular target: T2, PI5P4Kγ+ (E378H,I159V,D161V) mutant (Homo sapiens, UniProt Q8TBX8, D161V/E153T/I159V/Q378H); test: […] lipid kinase assay, % inhibition at […]; type: biochemical
# T2 construct: gene PIP4K2C
# T2 sequence (Q8TBX8 2-421 E153T/I159V/D161V/Q378H): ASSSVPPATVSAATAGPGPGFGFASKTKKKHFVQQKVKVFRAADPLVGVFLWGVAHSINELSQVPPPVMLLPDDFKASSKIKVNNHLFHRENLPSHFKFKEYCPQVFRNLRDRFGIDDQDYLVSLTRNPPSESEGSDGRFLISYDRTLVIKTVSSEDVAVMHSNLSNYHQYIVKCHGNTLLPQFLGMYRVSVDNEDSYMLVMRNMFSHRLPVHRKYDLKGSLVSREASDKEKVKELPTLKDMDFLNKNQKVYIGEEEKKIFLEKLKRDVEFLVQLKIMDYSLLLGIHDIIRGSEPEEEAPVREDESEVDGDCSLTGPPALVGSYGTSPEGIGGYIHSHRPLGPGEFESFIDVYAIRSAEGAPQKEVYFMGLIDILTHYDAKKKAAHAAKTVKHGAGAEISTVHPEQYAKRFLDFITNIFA
compound,measurement,setting,value
"FC(F)(F)c1ccccc1-c1nc(NCc2cccs2)c2ccccc2n1 [compound 1, NIH-12848]",pIC50,[1],5.48
same,inhibition at 10 µM,[2],71%
